Key:
[1] = Solubilization in aqueous hydroxypropyl-cyclodextrin solution; format: physicochemical
Procedure: (§1) 100 milligrams of oleandrin was weighed and placed in a 5 mL scintillation tube. 1.5 mL of absolute ethanol was added to the tube and shaken until the oleandrin was completely dissolved. 5 grams of pyrogen free hydroxypropyl-β-cyclodextrin (sold by, Sigma-Aldrich, Inc., St. Louis, Mo., USA) was weighed on an analytical scale and placed in a graduated cylinder. Water was added with shaking until the volume reached 90 ml. The above ethanolic solution of oleandrin was added to the aqueous solution containing hydroxypropyl-β-cyclodextrin with stirring. A clear solution was obtained. Water was added to the clear solution to make the total volume to 100 mL. Thus, 1 mg oleandrin was effectively solubilized in 1 ml of 5% solution of hydroxypropyl-β-cyclodextrin. The solution was sterile-filtered through a 0.22 μm filter. The suspension was frozen below −40° C. and lyophilized. The lyophilized cake was reconstituted with sterile water for injection prior to further use.
The previous experiment was repeated using a 2% solution of hydroxypropyl-β-cyclodextrin prepared as in Example 1. 100 mg of oleandrin was dissolved in 100 mL of water containing 2.5 grams of hydroxypropyl-β-cyclodextrin. The solution was sterile-filtered through a 0.22 μm filter. The solution was frozen below −40° C. and lyophilized. The lyophilized cake was reconstituted with sterile water for injection prior to further use.
The experiment in example 1 was repeated using a 100 mg of Odoroside-A instead of oleandrin. 100 mg of Odoroside-A was dissolved in 5 grams of hydroxypropyl-β-cyclodextrin in 100 mL of water. The solution was sterile-filtered through a 0.22 μm filter. The solution was frozen below −40° C. and lyophilized. The lyophilized cake was reconstituted with sterile water for injection prior to further use.
as §1, with “5mL” for “5 mL”, “1-2” for “1.5”, “2.5” for “5”, “hydroxypropyl-γ-cyclodextrin” for “hydroxypropyl-β-cyclodextrin”, “2.5%” for “5%”, “hydroxypropyl-γ-cyclodextrin.” for “hydroxypropyl-β-cyclodextrin.”
as §1, with “of Proscillaridin-A” for “of oleandrin”, “tube. 1-2” for “tube. 1.5”, “the Proscillaridin-A” for “the oleandrin”, “dissolved. 2” for “dissolved. 5”, “mg Proscillaridin-A” for “mg oleandrin”, “of 2%” for “of 5%”
The previous experiment was repeated using a 5% solution of hydroxypropyl-β-cyclodextrin prepared as in Example 5. […]

[2] = test system: primary cultures of tumor cells from patients and a human cell line panel; settings: cited from earlier work
[3] = test system: different human malignant cell lines; settings: non-toxic concentrations; cited from earlier work
[4] = test system: androgen-independent human prostate cancer cell lines; settings: in vitro; cited from earlier work
[5] = rapidly dissolving γ-cyclodextrin complex (molar ratio 1:4), oral, dogs; cited from earlier work
[6] = test system: various cancer cell lines; settings: cited from earlier work
human cancer cells = settings: cited from earlier work
[7] = Oleandrin stirred and shaken with water; format: physicochemical; settings: 10 mg stirred and shaken with 10 ml of water, after 20 minutes
Procedure: 10 milligrams (mg) of oleandrin was stirred and shaken with 10 ml of water in a test tube.

AP-1 = settings: induced by TNF and other agents; cited from earlier work
[8] = in vivo; cited from earlier work
[9] = test system: FGF-2 release from PC3 cells; settings: 0.1 ng/mL; cited from earlier work
NF-κB = settings: cited from earlier work
[10] = test system: FGF-2 release from DU145 cells; settings: 0.1 ng/mL; cited from earlier work
[11] = oral tablet containing 0.25 mg, humans; cited from earlier work
[12] = in 100 mL of water containing 5 grams of hydroxypropyl-β-cyclodextrin
[13] = in 1 ml of 2.5% solution of hydroxypropyl-γ-cyclodextrin
[14] = in 50 ml of 9.8% solution of hydroxypropyl-β-cyclodextrin, 70-80 degree centigrade

CO[C@@H]1C[C@H](O[C@H]2CC[C@@]3(C)[C@H](CC[C@@H]4[C@@H]3CC[C@]3(C)[C@@H](C5=CC(=O)OC5)CC[C@]43O)C2)O[C@H](C)[C@@H]1O [Odoroside-A, Odoroside A]
amount dissolved [1, 12]: 100 mg

C[C@H]1O[C@@H](O[C@H]2[C@@H](O)C[C@H](O[C@H]3[C@@H](O)C[C@H](O[C@H]4CC[C@@]5(C)[C@H](CC[C@@H]6[C@@H]5CC[C@]5(C)[C@@H](C7=CC(=O)OC7)CC[C@]65O)C4)O[C@@H]3C)O[C@@H]2C)C[C@H](O)[C@@H]1O [digitoxin]
selective toxicity solid vs hematological tumor cells [2]: selective toxicity against solid tumor cells | growth and apoptosis [3]: inhibits growth and induce apoptosis

C[C@H]1O[C@@H](O[C@H]2[C@@H](O)C[C@H](O[C@H]3[C@@H](O)C[C@H](O[C@H]4CC[C@@]5(C)[C@H](CC[C@@H]6[C@@H]5C[C@@H](O)[C@]5(C)[C@@H](C7=CC(=O)OC7)CC[C@]65O)C4)O[C@@H]3C)O[C@@H]2C)C[C@H](O)[C@@H]1O [digoxin]
selective toxicity solid vs hematological tumor cells [2]: selective toxicity against solid tumor cells | growth and apoptosis [3]: inhibits growth and induce apoptosis | induction of apoptosis [4]: induce apoptosis | increase of plasma levels [5]: approximately 5.4 fold

CO[C@H]1C[C@H](O[C@H]2CC[C@@]3(C)[C@H](CC[C@@H]4[C@@H]3CC[C@]3(C)[C@@H](C5=CC(=O)OC5)[C@@H](OC(C)=O)C[C@]43O)C2)O[C@@H](C)[C@@H]1O [oleandrin, 16b-acetoxy-3b-[(2,6 dideoxy-3-0-methyl-a2-L-arabino-hexopyranosyl)oxy]-14-hydroxy-5β, 14β-card-20(22)-enolide]
anti-cancer activity [6]: significant anti-cancer activities | cell killing (human cancer cells): able to induce cell killing | dissolution in water [7]: Appreciable quantities of compound remained out of solution | AP-1 activation (AP-1): blocked | induction of apoptosis [4]: induce apoptosis | time of elimination from the body [8]: one to two | inhibition of FGF-2 release [9]: 45.7% | TNF-induced activation of NF-κB (NF-κB): blocked | inhibition of FGF-2 release [10]: 49.9% | amount effectively solubilized [1, 13]: 1 mg | amount effectively solubilized ([1]; in 1 ml of 5% solution of hydroxypropyl-β-cyclodextrin): 1 mg | amount effectively solubilized [1, 14]: 100 mg | amount dissolved ([1]; in 100 mL of water containing 2.5 grams of hydroxypropyl-β-cyclodextrin (called 2% solution)): 100 mg

C[C@@H]1O[C@@H](O[C@H]2C[C@@H](O)[C@]3(CO)[C@H]4[C@H](O)C[C@]5(C)[C@@H](C6=CC(=O)OC6)CC[C@]5(O)[C@@H]4CC[C@]3(O)C2)[C@H](O)[C@H](O)[C@H]1O [Ouabain]
induction of apoptosis [4]: induce apoptosis

C[C@H]1[C@H](C)CC[C@]2(C(=O)O)CC[C@]3(C)C(=CC[C@@H]4[C@@]5(C)CC[C@H](O)C(C)(C)[C@@H]5CC[C@]43C)[C@H]12 [ursolic acid]
anti-cancer activity [6]: significant anti-cancer activities

CO[C@@H]1C[C@H](O[C@H]2CC[C@@]3(C)[C@H](CC[C@@]45O[C@@]46CC[C@H](C4=CC(=O)OC4)[C@@]6(C)CC[C@H]35)C2)O[C@H](C)[C@@H]1O [adynerin]
anti-cancer activity [6]: significant anti-cancer activities

C[C@@H]1O[C@@H](O[C@@H]2C=C3CC[C@@H]4[C@H](CC[C@]5(C)[C@@H](c6ccc(=O)oc6)CC[C@]45O)[C@@]3(C)CC2)[C@H](O)[C@H](O)[C@H]1O [Proscillaridin-A, Proscillaridin A, reference compound]
bioavailability [11]: 20-30% | selective toxicity solid vs hematological tumor cells [2]: no selective toxicity | amount effectively solubilized ([1]; in 1 ml of 2% solution of hydroxypropyl-β-cyclodextrin): 1 mg | amount effectively solubilized [1, 13]: 1 mg | amount effectively solubilized [1, 14]: 100 mg | amount dissolved [1, 12]: 100 mg

Source: US20050026849A1, “Water soluble formulations of digitalis glycosides for treating cell-proliferative and other diseases” (priority 2003, published 2005)
